Laboratory results reported in patent US20060223831A1, “Bromide and its crystal” (priority 2003, published 2006).

Tests used:
[1] = Evaluation of hygroscopic property (storage in humidity-adjusted desiccators); assay type: physicochemical; settings: for Hygroscopic property: conclusion from storage at ca. 0 to 93% R.H.; for HPLC purity change / degradation due to storage: 7 days of storage, ca. 0 to 93% R.H.
Experimental: About 0.5 g of each of the α- form Crystals and β- form Crystals of the bromide obtained in Example 2 was put into a weighing bottle of known mass and, after precisely calculating its mass, preserved under the following storage condition at 25° C. to measure changes in the mass.
Storage condition: A desiccator adjusted to a humidity of about 0% R.H. (silica gel), 33% R.H. (saturated MgCl2.6H2O aqueous solution), 51% R.H. (saturated Ca(NO3)2 aqueous solution), 75% R.H. (saturated NaCl aqueous solution), or 93% R.H. (saturated KNO3 aqueous solution).
i) Moisture absorption (dehydrated amount): By taking out each sample after 7 days of the storage, the weight change was precisely measured and recorded to calculate amount of the absorbed moisture.
ii) Appearance verification: Appearance of the powder was verified with the naked eye and using a magnifying lens.
iii) Powder X-ray diffraction measurement: Powder X-ray diffraction patterns of samples before storage and after completion of the storage period were recorded by a powder X-ray diffraction device.
iv) HPLC purity: Detection of degraded products in the samples before storage and after completion of the storage period was carried out using HPLC to measure purity.
(HPLC conditions) Mobile phase: 0.1% trifluoroacetic acid aqueous solution/acetonitrile=9:2, column: TSKgel ODS 80TsQA, 4.6×150 mm, particle diameter 5 μm (mfd. by Tosoh), flow rate: 1 ml/min, column temperature: 40° C., detection: UV 260 nm

[2] = Water absorption/desorption behavior (moisture equilibrium measuring device SGA-X100); assay type: physicochemical
Experimental: Water absorption/desorption behavior of the bromide (β- form Crystal) and the chloride obtained in Reference Example as a comparative compound was measured using a moisture equilibrium measuring device SGA-X100 (VTI) under conditions of temperature: 25° C., measuring range: relative humidity of from 5 to 95%, and measuring interval: 5%.

[3] = Stability test (40° C., 75% R.H., 3 months); assay type: physicochemical; settings: for Storage stability: 3 months at 40° C. under a relative humidity of 75%
Experimental: Samples were stored under shade for 3 months in a constant temperature constant moisture vessel of 40° C. and 75% R.H. The purity of each sample before storage and after storage was measured using HPLC, and change of crystal form was measured by powder X-ray diffraction. In addition, as a comparative example, crystals of the chloride were stored for 3 months under the same conditions, and amount of an impurity a (a compound in which the imidazolium ring was ring-opened) was measured. [table]

[4] = system: tumor; settings: cf. page 22 of WO 01/60803; cited from earlier work
[5] = cf. page 22 of WO 01/60803; cited from earlier work
[6] = after storage, 3 months, 40° C., 75% R.H., under shade
[7] = 93% R.H. storage, 25° C., 7 days
[8] = other conditions (ca. 0 to 75% R.H.), 25° C., 7 days
[9] = all conditions (ca. 0 to 93% R.H.), 25° C., 7 days

## COCCn1c2c([n+](Cc3cnccn3)c1C)C(=O)c1ccccc1C2=O.[Br-] [bromide, 1-(2-methoxyethyl)-2-methyl-4,9-dioxo-3-(pyrazin-2-ylmethyl)-4,9-dihydro-1H-naphtho[2,3-d]imidazol-3-ium bromide]
[1]; 25° C.
  Hygroscopic property: no hygroscopic property

## COCCn1c2c([n+](Cc3cnccn3)c1C)C(=O)c1ccccc1C2=O [chloride, 1-(2-methoxyethyl)-2-methyl-4,9-dioxo-3-(pyrazin-2-ylmethyl)-4,9-dihydro-1H-naphtho[2,3-d]imidazol-3-ium chloride]
[2]; 25° C., 65% R.H. to 80% R.H.
  Weight gain on forming monohydrate: 4.3%
[2]; 25° C., absorption
  Relative humidity causing deliquescence: ≥ 85 % R.H.
[2]; 25° C., at the time of drying, hydration state stable up to 25% R.H.
  Relative humidity below which hydrate returned to anhydride: < 25 % R.H.
[2]; slight heating
  Heating temperature returning hydrate to anhydride: ≥ 25 °C
[3]
  Storage stability: low
[3]; [6]
  Impurity a (%) (imidazolium ring-opened compound): 2.45%
[3]; before storage
  Impurity a (%) (imidazolium ring-opened compound): 0.64%
[4]
  in vivo tumor growth inhibitory activity: good
[5]
  toxicity: low

## COCCn1c2c([n+](Cc3cnccn3)c1C)C(=O)c1ccccc1C2=O.[Br-] [α-form Crystal, 1-(2-methoxyethyl)-2-methyl-4,9-dioxo-3-(pyrazin-2-ylmethyl)-4,9-dihydro-1H-naphtho[2,3-d]imidazol-3-ium bromide]
[1]; 33% R.H., 25° C., 7 days, listed as α-form Crystals
  Weight change (%): −0.02%
[1]; 33% R.H., 25° C., after 7 days of storage, listed as α-form Crystals
  HPLC purity (%): 99.89%
[1]; 51% R.H., 25° C., 7 days, listed as α-form Crystals
  Weight change (%): −0.04%
[1]; 51% R.H., 25° C., after 7 days of storage, listed as α-form Crystals
  HPLC purity (%): 99.89%
[1]; 75% R.H., 25° C., 7 days, listed as α-form Crystals
  Weight change (%): 0.13%
[1]; 75% R.H., 25° C., after 7 days of storage, listed as α-form Crystals
  HPLC purity (%): 99.88%
[1]; [7]
  Appearance verification: change from reddish yellow to yellow
  Powder X-ray diffraction pattern after storage: transitioned to β- form Crystals
  Weight loss: About 1%
[1]; 93% R.H., 25° C., 7 days, listed as α-form Crystals
  Weight change (%): −0.94%
[1]; 93% R.H., 25° C., after 7 days of storage, listed as α-form Crystals
  HPLC purity (%): 99.89%
[1]; 25° C.
  HPLC purity change / degradation due to storage: the purity was not decreased
  Hygroscopic property: no hygroscopic property
[1]; before storage, listed as α-form Crystals
  HPLC purity (%): 99.93%
[1]; ca. 0% R.H. (silica gel), 25° C., 7 days, listed as α-form Crystals
  Weight change (%): −0.10%
[1]; ca. 0% R.H., 25° C., after 7 days of storage, listed as α-form Crystals
  HPLC purity (%): 99.72%
[1]; [8]
  Appearance verification: No changes were found
  Powder X-ray diffraction pattern after storage: No changes were found
[3]
  Storage stability: degradation due to the storage was not observed
[3]; listed as α- form Crystals
  Storage stability: stable
[3]; [6]
  HPLC purity (%): 99.92%
  Powder X-ray diffraction pattern: β-form
[3]; before storage
  HPLC purity (%): 99.91%
  Powder X-ray diffraction pattern: α-form

## COCCn1c2c([n+](Cc3cnccn3)c1C)C(=O)c1ccccc1C2=O.[Br-] [β-form Crystal, 1-(2-methoxyethyl)-2-methyl-4,9-dioxo-3-(pyrazin-2-ylmethyl)-4,9-dihydro-1H-naphtho[2,3-d]imidazol-3-ium bromide]
[1]; 33% R.H., 25° C., 7 days, listed as β-form Crystals
  Weight change (%): 0.02%
[1]; 33% R.H., 25° C., after 7 days of storage, listed as β-form Crystals
  HPLC purity (%): 99.73%
[1]; 51% R.H., 25° C., 7 days, listed as β-form Crystals
  Weight change (%): 0.04%
[1]; 51% R.H., 25° C., after 7 days of storage, listed as β-form Crystals
  HPLC purity (%): 99.72%
[1]; 75% R.H., 25° C., 7 days, listed as β-form Crystals
  Weight change (%): 0.06%
[1]; 75% R.H., 25° C., after 7 days of storage, listed as β-form Crystals
  HPLC purity (%): 99.71%
[1]; 93% R.H., 25° C., 7 days, listed as β-form Crystals
  Weight change (%): 0.08%
[1]; 93% R.H., 25° C., after 7 days of storage, listed as β-form Crystals
  HPLC purity (%): 99.71%
[1]; 25° C.
  HPLC purity change / degradation due to storage: the purity was not decreased
  Hygroscopic property: no hygroscopic property
[1]; [9]
  Appearance verification: No changes were found
  Powder X-ray diffraction pattern after storage: did not change
[1]; all of the moisture adjustment conditions, 25° C., 7 days
  Weight change: Significant weight change was not found
[1]; before storage, listed as β-form Crystals
  HPLC purity (%): 99.72%
[1]; ca. 0% R.H. (silica gel), 25° C., 7 days, listed as β-form Crystals
  Weight change (%): 0.01%
[1]; ca. 0% R.H., 25° C., after 7 days of storage, listed as β-form Crystals
  HPLC purity (%): 99.73%
[2]; 25° C., humidity range of from 5 to 95%
  Hygroscopic property: not found
[3]
  Storage stability: very stable physically and chemically
[3]; listed as β- form Crystals
  Storage stability: stable
[3]; [6]
  HPLC purity (%): 99.71%
  Powder X-ray diffraction pattern: β-form
[3]; before storage
  HPLC purity (%): 99.71%
  Powder X-ray diffraction pattern: β-form
